Measured values from ChEMBL document CHEMBL1140464, “Synthesis and structure-activity relationship of 4-(2-aryl-cyclopropylamino)-quinoline-3-carbonitriles as EGFR tyrosine kinase inhibitors” (Bioorg Med Chem Lett, 2007).

Columns and labels:
[1] = target: T1, Epidermal growth factor receptor (Homo sapiens, UniProt P00533); assay: Inhibition of human recombinant EGFR by fluorescence polarization assay
[2] = target: T1, Epidermal growth factor receptor; assay: Inhibition of human EGFR autophosphorylation in A431 cells
[3] = target: Tyrosine-protein kinase ABL1 (Homo sapiens, UniProt P00519); assay: Inhibition of ABL
[4] = target: Tyrosine-protein kinase SYK (Homo sapiens, UniProt P43405); assay: Inhibition of SYK
[5] = target: Vascular endothelial growth factor receptor 1 (Homo sapiens, UniProt P17948); assay: Inhibition of Flt1
Vascular endothelial growth factor receptor 1, sequence (P17948 whole entry): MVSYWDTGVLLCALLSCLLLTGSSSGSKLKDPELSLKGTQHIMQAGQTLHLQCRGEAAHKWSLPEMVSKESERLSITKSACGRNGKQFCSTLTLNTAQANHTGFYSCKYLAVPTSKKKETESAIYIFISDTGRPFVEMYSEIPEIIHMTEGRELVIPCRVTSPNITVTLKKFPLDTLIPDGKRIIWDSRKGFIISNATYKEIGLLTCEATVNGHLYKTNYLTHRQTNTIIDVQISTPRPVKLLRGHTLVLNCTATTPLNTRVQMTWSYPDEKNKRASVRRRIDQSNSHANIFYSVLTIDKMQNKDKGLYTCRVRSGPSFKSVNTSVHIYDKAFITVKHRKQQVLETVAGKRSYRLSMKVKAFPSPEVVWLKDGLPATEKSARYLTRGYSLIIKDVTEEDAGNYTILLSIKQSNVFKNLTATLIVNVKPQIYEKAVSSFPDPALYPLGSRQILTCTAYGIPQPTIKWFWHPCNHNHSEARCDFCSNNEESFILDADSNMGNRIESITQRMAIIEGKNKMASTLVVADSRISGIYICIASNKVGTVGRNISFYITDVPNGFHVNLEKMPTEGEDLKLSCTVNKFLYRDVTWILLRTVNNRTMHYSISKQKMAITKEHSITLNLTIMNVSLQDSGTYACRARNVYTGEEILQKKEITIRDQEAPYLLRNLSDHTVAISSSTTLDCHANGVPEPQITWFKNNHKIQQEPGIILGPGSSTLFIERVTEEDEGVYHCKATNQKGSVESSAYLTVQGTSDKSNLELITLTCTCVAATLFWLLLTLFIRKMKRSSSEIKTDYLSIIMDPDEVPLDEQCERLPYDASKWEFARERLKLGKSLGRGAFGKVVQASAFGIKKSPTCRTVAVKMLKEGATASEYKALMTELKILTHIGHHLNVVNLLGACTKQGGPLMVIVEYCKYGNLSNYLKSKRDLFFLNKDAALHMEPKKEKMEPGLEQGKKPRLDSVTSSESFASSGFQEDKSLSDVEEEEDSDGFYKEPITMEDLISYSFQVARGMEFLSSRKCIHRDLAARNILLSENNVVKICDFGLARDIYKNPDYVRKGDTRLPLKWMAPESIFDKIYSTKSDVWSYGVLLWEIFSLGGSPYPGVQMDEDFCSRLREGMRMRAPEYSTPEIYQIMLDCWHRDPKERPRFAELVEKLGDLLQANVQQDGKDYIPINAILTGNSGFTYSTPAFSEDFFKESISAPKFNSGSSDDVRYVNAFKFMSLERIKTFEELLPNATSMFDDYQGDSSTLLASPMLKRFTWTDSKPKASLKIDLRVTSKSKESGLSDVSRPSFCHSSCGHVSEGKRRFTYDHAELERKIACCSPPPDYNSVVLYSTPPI

[6] = target: Vascular endothelial growth factor receptor 2 (Homo sapiens, UniProt P35968); assay: Inhibition of KDR
Vascular endothelial growth factor receptor 2, sequence (P35968 whole entry): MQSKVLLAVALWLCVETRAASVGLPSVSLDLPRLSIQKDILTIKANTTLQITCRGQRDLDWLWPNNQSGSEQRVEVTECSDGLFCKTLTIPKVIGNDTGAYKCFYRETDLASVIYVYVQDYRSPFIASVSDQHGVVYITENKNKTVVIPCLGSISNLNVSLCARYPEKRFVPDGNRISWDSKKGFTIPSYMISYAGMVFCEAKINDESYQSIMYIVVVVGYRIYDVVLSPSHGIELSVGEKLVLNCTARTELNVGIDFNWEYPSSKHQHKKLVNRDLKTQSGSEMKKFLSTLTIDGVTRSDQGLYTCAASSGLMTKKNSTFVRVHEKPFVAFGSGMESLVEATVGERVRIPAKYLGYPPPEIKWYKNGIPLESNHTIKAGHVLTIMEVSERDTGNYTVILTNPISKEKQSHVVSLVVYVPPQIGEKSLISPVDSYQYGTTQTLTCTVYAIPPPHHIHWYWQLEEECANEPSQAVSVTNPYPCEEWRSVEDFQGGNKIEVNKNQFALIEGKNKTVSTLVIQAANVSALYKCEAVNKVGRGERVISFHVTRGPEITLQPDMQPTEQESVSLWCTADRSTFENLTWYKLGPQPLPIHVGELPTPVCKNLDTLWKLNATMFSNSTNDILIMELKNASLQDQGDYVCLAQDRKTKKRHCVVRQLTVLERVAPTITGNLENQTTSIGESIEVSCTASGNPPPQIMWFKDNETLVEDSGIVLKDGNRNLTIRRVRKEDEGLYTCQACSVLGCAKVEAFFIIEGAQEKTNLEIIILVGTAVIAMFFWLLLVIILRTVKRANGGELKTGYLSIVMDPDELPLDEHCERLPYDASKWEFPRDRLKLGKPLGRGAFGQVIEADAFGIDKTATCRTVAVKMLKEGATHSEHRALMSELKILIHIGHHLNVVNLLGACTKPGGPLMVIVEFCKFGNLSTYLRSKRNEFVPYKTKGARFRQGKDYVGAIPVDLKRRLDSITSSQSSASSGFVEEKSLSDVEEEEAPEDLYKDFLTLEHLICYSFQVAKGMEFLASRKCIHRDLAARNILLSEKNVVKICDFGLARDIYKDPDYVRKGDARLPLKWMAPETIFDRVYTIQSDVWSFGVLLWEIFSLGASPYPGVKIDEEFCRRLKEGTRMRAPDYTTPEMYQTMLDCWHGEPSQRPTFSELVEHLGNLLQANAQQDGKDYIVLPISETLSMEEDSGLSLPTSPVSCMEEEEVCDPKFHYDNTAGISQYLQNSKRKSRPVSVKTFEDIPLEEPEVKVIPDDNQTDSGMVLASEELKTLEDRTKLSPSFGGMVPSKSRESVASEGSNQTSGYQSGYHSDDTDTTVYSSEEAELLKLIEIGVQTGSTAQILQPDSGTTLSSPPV

[7] = target: Proto-oncogene tyrosine-protein kinase Src (Homo sapiens, UniProt P12931); assay: Inhibition of SRC
Proto-oncogene tyrosine-protein kinase Src, sequence (P12931 2-536 limits assumed): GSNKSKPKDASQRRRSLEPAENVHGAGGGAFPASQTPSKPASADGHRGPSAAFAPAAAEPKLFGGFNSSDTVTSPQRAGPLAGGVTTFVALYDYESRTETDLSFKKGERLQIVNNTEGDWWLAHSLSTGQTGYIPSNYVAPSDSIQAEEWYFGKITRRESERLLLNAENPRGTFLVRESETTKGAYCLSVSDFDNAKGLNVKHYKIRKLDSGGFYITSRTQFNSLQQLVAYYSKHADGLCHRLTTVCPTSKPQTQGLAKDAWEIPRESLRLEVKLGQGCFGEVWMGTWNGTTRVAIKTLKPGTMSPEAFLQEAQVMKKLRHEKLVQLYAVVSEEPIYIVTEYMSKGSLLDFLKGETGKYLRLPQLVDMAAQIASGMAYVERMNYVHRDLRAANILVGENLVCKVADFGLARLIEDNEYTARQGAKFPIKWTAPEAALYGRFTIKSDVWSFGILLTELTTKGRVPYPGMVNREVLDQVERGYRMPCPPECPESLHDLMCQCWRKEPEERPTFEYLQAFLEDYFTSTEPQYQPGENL

T1 sequence (P00533 whole entry): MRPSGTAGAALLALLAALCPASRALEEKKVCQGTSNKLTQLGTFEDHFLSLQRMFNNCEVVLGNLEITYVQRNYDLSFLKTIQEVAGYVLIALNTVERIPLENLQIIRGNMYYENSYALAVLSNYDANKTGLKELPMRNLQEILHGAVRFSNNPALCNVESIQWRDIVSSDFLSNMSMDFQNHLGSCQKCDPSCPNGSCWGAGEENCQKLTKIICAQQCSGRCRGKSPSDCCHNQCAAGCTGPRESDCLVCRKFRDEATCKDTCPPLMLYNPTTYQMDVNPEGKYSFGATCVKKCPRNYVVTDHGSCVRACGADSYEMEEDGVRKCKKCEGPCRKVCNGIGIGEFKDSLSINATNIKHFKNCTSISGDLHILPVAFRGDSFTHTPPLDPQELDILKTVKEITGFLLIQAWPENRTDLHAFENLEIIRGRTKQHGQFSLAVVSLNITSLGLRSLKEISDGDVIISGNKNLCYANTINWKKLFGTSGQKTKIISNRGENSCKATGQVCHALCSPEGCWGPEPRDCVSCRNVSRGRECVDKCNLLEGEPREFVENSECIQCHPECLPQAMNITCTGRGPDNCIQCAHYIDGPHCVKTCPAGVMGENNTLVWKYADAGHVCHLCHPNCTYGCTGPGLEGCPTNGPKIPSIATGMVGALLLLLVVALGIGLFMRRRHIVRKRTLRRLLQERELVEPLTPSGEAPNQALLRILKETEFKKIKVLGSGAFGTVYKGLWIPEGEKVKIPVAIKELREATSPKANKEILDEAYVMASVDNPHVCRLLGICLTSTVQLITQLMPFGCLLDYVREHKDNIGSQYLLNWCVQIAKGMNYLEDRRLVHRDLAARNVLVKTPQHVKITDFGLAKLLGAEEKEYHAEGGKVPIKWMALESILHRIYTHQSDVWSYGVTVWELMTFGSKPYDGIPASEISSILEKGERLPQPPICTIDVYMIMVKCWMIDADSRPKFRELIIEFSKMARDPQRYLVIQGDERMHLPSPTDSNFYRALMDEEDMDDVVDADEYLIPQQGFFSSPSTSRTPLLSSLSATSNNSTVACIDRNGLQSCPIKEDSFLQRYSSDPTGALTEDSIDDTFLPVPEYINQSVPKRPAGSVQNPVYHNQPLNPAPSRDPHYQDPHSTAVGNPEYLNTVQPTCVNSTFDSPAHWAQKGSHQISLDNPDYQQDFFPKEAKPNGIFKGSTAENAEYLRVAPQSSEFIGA

Ki [1]	IC50 [2]	Ki [3]	Ki [4]	Ki [5]	Ki [6]	Ki [7]	Compound
220 nM	173 nM	300 nM	0.14 µM	1900 nM	99 nM	49 nM	COc1cc2c(N[C@@H]3C[C@H]3c3ccccc3)c(C#N)cnc2cc1OCCCc1cccnc1
24 nM	90 nM	950 nM	0.25 µM	1600 nM	2100 nM	150 nM	COc1cc2ncc(C#N)c(N[C@@H]3C[C@H]3c3ccccc3)c2cc1OC
68 nM	68 nM	1800 nM	> 10 µM	1710 nM	650 nM	> 10000 nM	COc1cc2ncc(C#N)c(N[C@@H]3C[C@H]3c3ccccc3)c2cc1OCCCc1cccnc1
120 nM	1610 nM	> 10000 nM	> 10 µM	> 10000 nM	2600 nM	330 nM	COc1cc2ncc(C#N)c(N[C@@H]3C[C@H]3c3ccccc3)c2cc1OCc1ccccc1
80 nM							COc1cc2ncc(C#N)c(N[C@@H]3C[C@H]3c3ccc(Oc4ccccc4)cc3)c2cc1OC
360 nM	360 nM	> 10000 nM	> 10 µM	1500 nM	> 10000 nM	> 10000 nM	COc1cc2c(N[C@@H]3C[C@H]3c3ccccc3)c(C#N)cnc2cc1OC1CCN(C)CC1
400 nM	2530 nM	> 10000 nM	> 10 µM	> 10000 nM	> 10000 nM	570 nM	N#Cc1cnc2ccc(-c3ccc(CN4CCOCC4)cc3)cc2c1N[C@@H]1C[C@H]1c1ccccc1
360 nM	8270 nM	> 10000 nM	> 10 µM	> 10000 nM	> 10000 nM	210 nM	COc1ccc2ncc(C#N)c(N[C@@H]3C[C@H]3c3ccccc3)c2c1
180 nM	2580 nM	> 10000 nM	> 10 µM	> 10000 nM	> 10000 nM	170 nM	COc1ccc2c(N[C@@H]3C[C@H]3c3ccccc3)c(C#N)cnc2c1
36 nM							COc1cc2ncc(C#N)c(N[C@@H]3C[C@H]3c3ccccc3F)c2cc1OC
340 nM	5260 nM	> 10000 nM	> 10 µM	> 10000 nM	> 10000 nM	280 nM	N#Cc1cnc2ccc(-c3cccc(CN4CCOCC4)c3)cc2c1N[C@@H]1C[C@H]1c1ccccc1
52 nM		1800 nM	> 10 µM	910 nM	560 nM	> 10000 nM	COc1cc2ncc(C#N)c(N[C@@H]3C[C@H]3c3ccccc3)c2cc1OCCCN1CCOCC1
220 nM							COc1cc2ncc(C#N)c(N[C@@H]3C[C@H]3c3ccc(Br)cc3)c2cc1OC
44 nM							COc1cc2ncc(C#N)c(N[C@@H]3C[C@H]3c3ccc(Cl)cc3)c2cc1OC
64 nM	405 nM	> 10000 nM	> 10 µM	> 10000 nM	150 nM	> 10000 nM	COc1cc2ncc(C#N)c(N[C@@H]3C[C@H]3c3ccccc3)c2cc1OCCN1CCOCC1
80 nM	234 nM			920 nM	170 nM	140 nM	N#Cc1cnc2cc(-c3ccc(CN4CCOCC4)cc3)ccc2c1N[C@@H]1C[C@H]1c1ccccc1
52 nM							COc1cc2ncc(C#N)c(N[C@@H]3C[C@H]3c3cccc(Br)c3)c2cc1OC

Compound	Ki [1]	IC50 [2]	Ki [3]	Ki [4]	Ki [5]	Ki [6]	Ki [7]
N#Cc1cnc2ccc(-c3ccc(CN)cc3)cc2c1N[C@@H]1C[C@H]1c1ccccc1	40 nM	2100 nM	770 nM	0.45 µM	1400 nM	1500 nM	86 nM
COc1cc2c(N[C@@H]3C[C@H]3c3ccccc3)c(C#N)cnc2cc1OCCCN1CCOCC1			200 nM	> 10 µM	350 nM	420 nM	45 nM
COCCOc1cc2ncc(C#N)c(N[C@@H]3C[C@H]3c3ccccc3)c2cc1OC	60 nM	52.8 nM	390 nM	0.16 µM	2900 nM	140 nM	110 nM
COc1cc2c(N[C@@H]3C[C@H]3c3ccccc3)c(C#N)cnc2cc1OCCCN1CCN(C)CC1	3 nM	5.7 nM	44 nM	0.041 µM	110 nM	300 nM	27 nM
